US11123340B2, “Small-molecule UT-A-selective urea transport inhibitors” (The Regents of the University of California, priority 2014, dated 2021)

Legend:
[1] = In vitro metabolic stability in rat hepatic microsomes; assay type: in vitro ADME; settings: at 60 min, 5 μM, NADPH
Procedure: As described (see, e.g., Snyder et al. (2011) J Med Chem. 54, 5468-5477), compounds (each 5 μM) were incubated for specified times at 37° C. with rat liver microsomes (1 mg protein/mL; Sigma-Aldrich, St. Louis, Mo.) in potassium phosphate buffer (100 mM) containing 1 mM NADPH. The mixture was then chilled on ice, and 0.5 mL of ice-cold EtOAc was added. Samples were centrifuged for 15 min at 3,000 rpm, the supernatant evaporated to dryness, and the residue was dissolved in 100 μl mobile phase (acetonitrile: water [3:1], containing 0.1% formic acid) for LC/MS. Reverse-phase HPLC separations were carried out using a XTERRA MS C18 column (2.1 mm×100 mm, 3.5 m) equipped with a solvent delivery system (Waters model 2695, Milford, Mass.). The solvent system consisted of a linear gradient from 5 to 95% acetonitrile containing 0.1% formic acid, run over 16 min (0.2 mL/min flow rate).
In vitro metabolic stability was measured by LC/MS after incubation with rat hepatic microsomes and NADPH.

Pharmacokinetics in rats = assay type: in vivo; settings: rat; for half-life: plasma, read-out: plasma elimination t1/2 (converted)
Procedure: UTAinh-E02 or UTAinh-F11 was administered at 20 mg/kg intravenously by tail vein to rats. UTAinh-E02 was formulated as a 5 mg/mL saline solution containing 20% dimethylacetamide and 40% 2-hydroxypropyl γ-cyclodextrin; UTAinh-F11 was formulated as a 5 mg/mL saline solution containing 20% dimethylacetamide and 0.6 mg/mL NaOH. Blood samples were collected from the tail vein into K3EDTA mini collecting tubes (Greiner, Kremsmunster, Austria) at specified time points. Plasma samples were separated by centrifugation and kept frozen at −20 OC until analysis. Urine samples were also collected. Calibration standards were prepared in urine and plasma from control (non-treated) rats to which known amounts of UTAinh-E02 or UTAinh-F11 were added. The mixture was centrifuged for 20 min at 13,200 rpm and 90 μL of supernatant was taken for LC/MS. The solvent system consisted of a linear gradient from 5% to 95% acetonitrile containing 0.1% formic acid over 16 min (0.2 mL/min flow). Mass spectra was acquired on a mass spectrometer (Waters 2695+micromass ZQ; Waters) using electrospray (+) ionization, mass ranging from 100 to 1500 Da, 40-V cone voltage.
Several vehicles and administration routes were tested in order to give predicted therapeutic inhibitor concentrations in blood and urine. […] Because of the alkaline pH of the administered compounds the vehicle control for UTAinh-F11 was 20% dimethylacetamide and 1.2 mg/mL NaHCO3 in saline to give identical pH. […] Urine levels of UTAinh-F11 were >3 μM over 6 h.

[2] = intraperitoneal, subcutaneous or oral, up to 100 mg/kg

metabolism [1] | half-life (Pharmacokinetics in rats; intravenous 20 mg/kg) | plasma concentration (Pharmacokinetics in rats; [2]) | urine concentration (Pharmacokinetics in rats; [2]) | urine level initially (Pharmacokinetics in rats; intravenous 20 mg/kg) | urine levels over 6 h (Pharmacokinetics in rats; intravenous 20 mg/kg) | SMILES | plasma level initially (Pharmacokinetics in rats; intravenous 20 mg/kg)
~50% | ~4.5 h | < 1 µM | < 1 µM | ~3 µM |  | CC(=O)Nc1ccc(-c2csc(-c3c[nH]c4ccccc34)n2)cc1 [UTA1inh-E02, N-(4-(2-(1H-indol-3-yl)thiazol-4-yl)phenyl)acetamide] | ~6 µM
~50% | ~1 h |  |  |  | > 3 µM | COc1ccc(C)cc1S(=O)(=O)Nc1ccc(Cl)c(N2CCCS2(=O)=O)c1 [UTA1inh-F11, N-[4-Chloro-3-(1,1-dioxido-1,2-thiazolidin-2-yl)phenyl]-2-methoxy-5-methylbenzene-sulfonamide] | higher initial plasma levels than UTAinh-E02
